One test has as its target PRMT5-MTA (Homo sapiens, UniProt O14744). The test can be described thus: Enzymatic inhibitory activity against PRMT5-MTA (AlphaScreen). Conditions: read-out: IC50. The format is biochemical. Put shortly:
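PRMT5/[…] (1 nM) was preincubated for 30 min at room temperature with 1 µM […] and 2.5 µM SAM, then exposed to compound (10-point, 3-fold from 1000 nM) for 15 min at 23 °C. Histone H4 substrate (5 nM) was added and reacted for 45 min at 23 °C. Symmetric dimethyl-R3 H4 was detected by AlphaScreen and IC50 calculated.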

The subject of another test is HCT116 MTAP KO cells. As to the kind of experiment: Inhibitory activity against cell proliferation (CellTiter Glo, 6 days), HCT116 MTAP KO. Type of test: cell-based. Conditions: for IC50: Homo sapiens, HCT-116, 144 h, HCT116 MTAP KO cells, 6 days, CellTiter Glo, read-out: HCT116 MTAP KO IC50; for Selectivity HCT 116-WT/ HCT116 MTAP KO: ratio of IC50 HCT116-WT / HCT116 MTAP KO. Put shortly:
(§1)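 Cells were seeded at 250 per well in McCoy's 5A with 10% FBS and left overnight at 37°C, 5% CO2. Compounds were added as 8-point, 4-fold dilutions from 10000 nM, with DMSO-only controls, for 6 days. IC50 values came from CellTiter Glo luminescence.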

The subject of a further test is HCT116-WT cells. The test can be described thus: Inhibitory activity against cell proliferation (CellTiter Glo, 6 days), HCT116-WT. The format is cell-based. Conditions: 144 h, HCT116-WT cells, 6 days, CellTiter Glo; read-out: HCT116-WT IC50. Put shortly:
as §1

PRMT5-MTA, sequence (O14744 whole entry): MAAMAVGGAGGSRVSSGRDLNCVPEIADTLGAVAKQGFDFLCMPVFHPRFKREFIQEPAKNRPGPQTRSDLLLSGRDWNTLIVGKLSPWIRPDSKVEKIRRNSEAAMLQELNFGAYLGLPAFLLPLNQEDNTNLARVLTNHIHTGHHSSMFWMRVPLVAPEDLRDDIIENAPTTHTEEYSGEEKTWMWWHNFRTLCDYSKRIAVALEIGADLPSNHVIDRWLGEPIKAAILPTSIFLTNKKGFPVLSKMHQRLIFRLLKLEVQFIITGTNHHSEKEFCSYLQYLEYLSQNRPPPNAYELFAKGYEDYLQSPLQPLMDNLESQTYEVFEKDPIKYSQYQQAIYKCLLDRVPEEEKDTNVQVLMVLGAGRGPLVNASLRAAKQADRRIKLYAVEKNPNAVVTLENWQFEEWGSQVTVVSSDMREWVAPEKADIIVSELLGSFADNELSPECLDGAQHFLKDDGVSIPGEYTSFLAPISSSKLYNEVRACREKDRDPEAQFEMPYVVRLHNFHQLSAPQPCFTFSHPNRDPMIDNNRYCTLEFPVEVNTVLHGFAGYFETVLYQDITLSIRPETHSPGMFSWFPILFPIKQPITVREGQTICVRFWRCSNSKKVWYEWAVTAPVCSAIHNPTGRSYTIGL
PRMT5-MTA, sequence (Q9BQA1 whole entry partner): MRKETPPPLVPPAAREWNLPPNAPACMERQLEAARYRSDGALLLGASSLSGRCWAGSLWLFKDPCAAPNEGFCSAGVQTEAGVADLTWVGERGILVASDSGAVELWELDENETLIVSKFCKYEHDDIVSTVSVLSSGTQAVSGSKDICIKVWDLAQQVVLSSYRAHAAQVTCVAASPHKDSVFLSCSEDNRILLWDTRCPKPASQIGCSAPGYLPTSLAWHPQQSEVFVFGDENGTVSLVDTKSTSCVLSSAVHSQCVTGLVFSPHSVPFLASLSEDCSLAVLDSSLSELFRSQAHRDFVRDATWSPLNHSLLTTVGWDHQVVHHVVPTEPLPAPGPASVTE

As to `[2H]C([2H])([2H])c1cc2cc(C(=O)N(Cc3ccc(-c4sc(C)nc4C)cn3)N(c3ncccn3)C3CC3)ccc2nc1N` [Example 317, 2-amino-N'-cyclopropyl-N-((5-(2,4-dimethylthiazol-5-yl)pyridin-2-yl)methyl)-3-(methyl-D3)-N'-(pyrimidin-2-yl)quinoline-6-carbohydrazide], the values for the IC50 at PRMT5-MTA, in the test with HCT116 MTAP KO cells and in the test on HCT116-WT cells were 6.4 nM, 23 nM and 241 nM, respectively. Besides, the “Selectivity HCT 116-WT/ HCT116 MTAP KO” value with HCT116 MTAP KO cells was determined as 10.48.
In the same order, the values of `Cc1cc2cc(C(=O)N(Cc3ccc(C4CCOCC4)cn3)N(C)c3ncccn3)ccc2nc1N` [Example 218, 2-amino-N',3-dimethyl-N'-(pyrimidin-2-yl)-N-((5-(tetrahydro-2H-pyran-4-yl)pyridin-2-yl)methyl)quinoline-6-carbohydrazide] are 7 nM, 291 nM, 3070 nM and 10.56.
Consider `Cc1cc2cc(C(=O)N(Cc3ccc(-c4scnc4CF)cn3)N(C)c3ncccn3)ccc2nc1N` [Example 242, 2-amino-N-((5-(4-(fluoromethyl)thiazol-5-yl)pyridin-2-yl)methyl)-N',3-dimethyl-N'-(pyrimidin-2-yl)quinoline-6-carbohydrazide], for which the IC50 on PRMT5-MTA was 5.9 nM; in the test with HCT116 MTAP KO cells, 8.4 nM; in the test on HCT116-WT cells, 235 nM. Also, the “Selectivity HCT 116-WT/ HCT116 MTAP KO” value in the test with HCT116 MTAP KO cells was found to be 27.98.
Taken in the same sequence, the figures for `Cn1ncc2c(N)nc3cc(Cl)c(C(=O)N4CC(C)(F)CN4c4ncc(Cl)cc4F)cc3c21` (stereo not shown) [Example 421, (4-amino-7-chloro-1-methyl-1H-pyrazolo [4,3-c]quinolin-8-yl)(2-(5-chloro-3-fluoropyridin-2-yl)-4-fluoro-4-methylpyrazolidin-1-yl)methanone] were 3.3 nM, 29 nM, 669 nM and 23.07.
As for `Cc1cc2cc(C(=O)N(Cc3ccc(N4CCC(F)(F)C4)cn3)N(C)c3ncccn3)ccc2nc1N` [Example 224, 2-amino-N-((5-(3,3-difluoropyrrolidin-1-yl)pyridin-2-yl)methyl)-N',3-dimethyl-N'-(pyrimidin-2-yl)quinoline-6-carbohydrazide], the results for the IC50 at PRMT5-MTA, with HCT116 MTAP KO cells and in the test with HCT116-WT cells were 16 nM, 470 nM and more than 10000 nM, respectively.
Take `Cc1cc2cc(C(=O)N(Cc3ccc(-c4cnc(C(F)(F)F)s4)cn3)N(C)c3ncccn3)ccc2nc1N` [Example 244, 2-amino-N',3-dimethyl-N'-(pyrimidin-2-yl)-N-((5-(2-(trifluoromethyl)thiazol-5-yl)pyridin-2-yl)methyl)quinoline-6-carbohydrazide]: the figures for the IC50 on PRMT5-MTA, in the test on HCT116 MTAP KO cells and in the test with HCT116-WT cells were 4.2 nM, 41 nM and 581 nM, respectively. Further, the “Selectivity HCT 116-WT/ HCT116 MTAP KO” value in the test with HCT116 MTAP KO cells amounted to 14.17.
In the same order, the values of `Cc1cc2cc(C(=O)N(Cc3cc4ccccc4cn3)N(C)c3ncccn3)ccc2nc1N` [Example 104, 2-amino-N-(isoquinolin-3-ylmethyl)-N',3-dimethyl-N'-(pyrimidin-2-yl)quinoline-6-carbohydrazide] are 3.4 nM, 67 nM, 1540 nM and 22.94.
As to `Cc1cc2cc(C(=O)N(Cc3ccc(-c4scnc4C#N)cn3)N(C)c3ncccn3)ccc2nc1N` [Example 243, 2-amino-N-((5-(4-cyanothiazol-5-yl)pyridin-2-yl)methyl)-N',3-dimethyl-N'-(pyrimidin-2-yl)quinoline-6-carbohydrazide], the IC50 at PRMT5-MTA is 3.4 nM; in the test on HCT116 MTAP KO cells, 6.5 nM; in the test with HCT116-WT cells, 148 nM. Besides, in the test with HCT116 MTAP KO cells, the “Selectivity HCT 116-WT/ HCT116 MTAP KO” value was found to be 22.77.
In the same order, the values of `C=C1CN(C(=O)c2cc3c(cc2Cl)nc(N)c2cnn(C)c23)N(c2ncc(F)cc2F)C1` [Example 432, (4-amino-7-chloro-1-methyl-1H-pyrazolo [4,3-c]quinolin-8-yl)(2-(3,5-2 fluoropyridin-2-yl)-4-methylenepyrazolidin-1-yl)methanone] are 4.5 nM, 16 nM, 657 nM and 41.06.
Consider `Cc1cc2cc(C(=O)N(Cc3ccc(-c4ccn(C)n4)cn3)N(C)c3ncccn3)ccc2nc1N` [Example 168, 2-amino-N',3-dimethyl-N-((5-(1-methyl-1H-pyrazol-3-yl)pyridin-2-yl)methyl)-N'-(pyrimidin-2-yl)quinoline-6-carbohydrazide], for which the results for the IC50 on PRMT5-MTA, in the test with HCT116 MTAP KO cells and in the test with HCT116-WT cells were 2.6 nM, 194 nM and 2570 nM, respectively. The “Selectivity HCT 116-WT/ HCT116 MTAP KO” value in the test on HCT116 MTAP KO cells turned out to be 13.26.
Taken in the same sequence, the figures for `Cc1cc2nc(N)c3cnn(C)c3c2cc1C(=O)N1CC(C)CN1c1ccc(OC(F)(F)F)cn1` (stereo not shown) [Example 384, (4-amino-1,7-dimethyl-1H-pyrazolo[4,3-c]quinolin-8-yl)(4-methyl-2-(5-(trifluoromethoxy)pyridin-2-yl)pyrazolidin-1-yl)m ethanone] were 4.1 nM, 238 nM, 3420 nM and 14.35.
In the case of `Cc1cc2cc(C(=O)N(Cc3ccc(C(F)(F)F)cn3)N(C)c3c(F)ccc4nccnc34)ccc2nc1N` [Example 125, 2-amino-N'-(6-fluoroquinoxalin-5-yl)-N',3-dimethyl-N-((5-(trifluoromethyl)pyridin-2-yl)methyl)quinoline-6-carbohydrazide], the IC50 was 1.7 nM at PRMT5-MTA, 84 nM with HCT116 MTAP KO cells and 2310 nM with HCT116-WT cells. Moreover, the “Selectivity HCT 116-WT/ HCT116 MTAP KO” value with HCT116 MTAP KO cells was found to be 27.54.
In the same order, the values of `Cc1cc2cc(C(=O)N(Cc3ccc(-c4ccccc4)cn3)N(C)c3ncccn3)ccc2nc1N` [Example 202, 2-amino-N',3-dimethyl-N-((5-phenylpyridin-2-yl)methyl)-N'-(pyrimidin-2-yl)quin oline-6-carbohydrazide] are 2.9 nM, 74 nM, 1060 nM and 14.26.
Turning to `Cc1cc2nc(N)c3cnn(C)c3c2cc1C(=O)N1CC(C)(F)CN1c1ncccc1F` (stereo not shown) [Example 422, (4-amino-1,7-dimethyl-1H-pyrazolo[4,3-c]quinolin-8-yl)(4-fluoro-2-(3-fluoropyridin-2-yl)-4-methylpyrazolidin-1-yl)metha none], the figures for the IC50 at PRMT5-MTA, with HCT116 MTAP KO cells and in the test on HCT116-WT cells were 9.3 nM, 21 nM and 806 nM, respectively. Moreover, in the test on HCT116 MTAP KO cells, the “Selectivity HCT 116-WT/ HCT116 MTAP KO” value is recorded as 38.38.
In the same order, the values of `Cc1cc2cc(C(=O)N(Cc3ccc(-c4cn[nH]c4)cn3)N(C)c3ncccn3)ccc2nc1N` [Example 200, N-((5-(1H-pyrazol-4-yl)pyridin-2-yl)methyl)-2-amino-N',3-dimethyl-N'-(pyrimidin-2-yl)quinoline-6-carbohydrazide] are 1.7 nM, 36 nM, 1240 nM and 34.36.
Taken in the same sequence, the figures for `Cc1cc2cc(C(=O)N(Cc3ccc(C(F)(F)F)cn3)N(C)c3nccc4c3ncn4C)ccc2nc1N` [Example 265, 2-amino-N',3-dimethyl-N'-(1-methyl-1H-imidazo[4,5-c]pyridin-4-yl)-N-((5-(trifluoromethyl)pyridin-2-yl)methyl)quinoline-6-carbohydrazide] were 2 nM, 38 nM, 549 nM and 14.45.
In the same order, the values of `COc1ncc(F)cc1-c1ccc(CN(C(=O)c2ccc3nc(N)c(C)cc3c2)N(C)c2ncccn2)nc1` [Example 161, 2-amino-N-((5'-fluoro-2'-methoxy-[3,3'-bipyridine]-6-yl)methyl)-N',3-dimethyl-N'-(pyrimidin-2-yl)quinoline-6-carbohydrazide] are 1.7 nM, 87 nM, 1780 nM and 20.48.
With `C=Cc1cc2cc(C(=O)N(Cc3ccc(C(F)(F)F)cn3)N(C)c3ncccn3)ccc2nc1N` [Example 304, 2-amino-N'-methyl-N'-(pyrimidin-2-yl)-N-((5-(trifluoromethyl)pyridin-2-yl)methyl)-3-v inylquinoline-6-carbohydrazide], the IC50 at PRMT5-MTA was 3.9 nM; in the test with HCT116 MTAP KO cells, 204 nM; in the test with HCT116-WT cells it was 3630 nM. The “Selectivity HCT 116-WT/ HCT116 MTAP KO” value in the test with HCT116 MTAP KO cells is listed as 17.81.
Taken in the same sequence, the figures for `C=C(C)c1cccnc1N(C)N(Cc1ccc(C(F)(F)F)cn1)C(=O)c1ccc2nc(N)c(C)cc2c1` [Example 135, 2-amino-N',3-dimethyl-N'-(3-(prop-1-en-2-yl)pyridin-2-yl)-N-((5-(trifluoromethyl)pyridin-2-yl)methyl)quinoline-6-carbohy drazide] were 3.2 nM, 163 nM, 2080 nM and 12.75.
Take `Cc1cc2nc(N)c3cnn(C)c3c2cc1C(=O)N1CC(C)CN1c1ncncc1F` (stereo not shown) [Example 395, (4-amino-1,7-dimethyl-1H-pyrazolo[4,3-c]quinolin-8-yl)(2-(5-fluoropyrimidin-4-yl)-4-methylpyrazolidin-1-yl)methanone]: the IC50 on PRMT5-MTA came to 4.9 nM; in the test with HCT116 MTAP KO cells it was 66 nM; in the test on HCT116-WT cells it was 2710 nM. For the same compound, the “Selectivity HCT 116-WT/ HCT116 MTAP KO” value with HCT116 MTAP KO cells came to 41.05.

Values taken from patent EP4745134A1 (Jiangsu Yahong Meditech Co., Ltd., priority 2023, dated 2025).
